Source: PMC5218480 (PLoS ONE, 2017)

System: MV-4-11 cells
Test: Gene expression microarray analysis (Affymetrix PrimeView) and GSEA
Assay type: cell-based, human
Design: RFU PODN (11730768_x_at) / Fold change /veh PODN (11730768_x_at) / RFU LINC00158 (11744669_a_at) / Fold change /veh LINC00158 (11744669_a_at) / RFU DUSP10 (11751237_a_at) / Fold change /veh DUSP10 (11751237_a_at) / RFU ID3 (11757404_x_at) / Fold change /veh ID3 (11757404_x_at) / RFU PLEKHG5 (11737974_s_at) / Fold change /veh PLEKHG5 (11737974_s_at) / RFU LRRC4B (11730491_at) / Fold change /veh LRRC4B (11730491_at) / RFU GIMAP4 (11747438_a_at) / Fold change /veh GIMAP4 (11747438_a_at) / RFU KRT8 (11758183_x_at) / Fold change /veh KRT8 (11758183_x_at) / RFU CNN1 (11734310_a_at) / Fold change /veh CNN1 (11734310_a_at) / RFU VPS37D (11726825_at) / Fold change /veh VPS37D (11726825_at) / RFU C10orf10 (11716522_x_at) / Fold change /veh C10orf10 (11716522_x_at) / RFU KIR2DL2 /// KIR2DL4 /// KIR2DL5A /// KIR2DL5B /// KIR2DS1 /// KIR2DS2 /// KIR2DS3 /// KIR2DS4 /// KIR3DL3 /// KIR3DL3 /// KIR3DS1 (11738374_at) / Fold change /veh KIR2DL2 /// KIR2DL4 /// KIR2DL5A /// KIR2DL5B /// KIR2DS1 /// KIR2DS2 /// KIR2DS3 /// KIR2DS4 /// KIR3DL3 /// KIR3DL3 /// KIR3DS1 (11738374_at) / RFU C1QL1 (11718748_at) / Fold change /veh C1QL1 (11718748_at) / RFU TMPRSS4 (11747572_a_at) / Fold change /veh TMPRSS4 (11747572_a_at) / RFU HAMP (11756126_x_at) / Fold change /veh HAMP (11756126_x_at) / RFU RNFT2 (11725882_a_at) / Fold change /veh RNFT2 (11725882_a_at) / RFU NR4A2 (11747474_a_at) / Fold change /veh NR4A2 (11747474_a_at) / RFU ABCC12 (11746883_a_at) / Fold change /veh ABCC12 (11746883_a_at) / RFU TMEM136 (11760407_x_at) / Fold change /veh TMEM136 (11760407_x_at) / RFU CLDN22 /// WWC2 (11732394_at) / Fold change /veh CLDN22 /// WWC2 (11732394_at) / RFU HLA-DPB1 (11760878_x_at) / Fold change /veh HLA-DPB1 (11760878_x_at) / RFU SPINT1 (11716480_a_at) / Fold change /veh SPINT1 (11716480_a_at) / RFU GAP43 (11754022_s_at) / Fold change /veh GAP43 (11754022_s_at) / RFU A4GNT (11735810_at) / Fold change /veh A4GNT (11735810_at) / RFU PRB3 (11715151_x_at) / Fold change /veh PRB3 (11715151_x_at) / RFU TUBB4B (11761932_at) / Fold change /veh TUBB4B (11761932_at) / RFU CAPN14 (11732068_a_at) / Fold change /veh CAPN14 (11732068_a_at) / RFU TMCC2 (11721928_a_at) / Fold change /veh TMCC2 (11721928_a_at) / RFU IRGQ (11745062_a_at) / Fold change /veh IRGQ (11745062_a_at) / RFU FAM174B (11720279_a_at) / Fold change /veh FAM174B (11720279_a_at) / RFU TMPRSS4 (11748680_a_at) / Fold change /veh TMPRSS4 (11748680_a_at) / RFU FAM212B (11763350_a_at) / Fold change /veh FAM212B (11763350_a_at) / RFU PLEKHG5 (11743358_a_at) / Fold change /veh PLEKHG5 (11743358_a_at) / RFU ZSCAN30 (11745921_a_at) / Fold change /veh ZSCAN30 (11745921_a_at) / RFU CMKLR1 (11741424_a_at) / Fold change /veh CMKLR1 (11741424_a_at) / RFU LOC101060620 /// MAPK8IP1 (11723275_at) / Fold change /veh LOC101060620 /// MAPK8IP1 (11723275_at) / RFU SPTSSB (11747773_x_at) / Fold change /veh SPTSSB (11747773_x_at) / RFU PRSS12 (11739890_at) / Fold change /veh PRSS12 (11739890_at) / RFU BIN1 (11741810_x_at) / Fold change /veh BIN1 (11741810_x_at) / RFU WNT11 (11732464_a_at) / Fold change /veh WNT11 (11732464_a_at) / RFU C10orf10 (11716521_a_at) / Fold change /veh C10orf10 (11716521_a_at) / RFU C5orf56 (11738089_at) / Fold change /veh C5orf56 (11738089_at) / RFU CYB561 (11721691_x_at) / Fold change /veh CYB561 (11721691_x_at) / RFU ANKRD19P (11752326_a_at) / Fold change /veh ANKRD19P (11752326_a_at) / RFU OR2T12 /// OR2T33 /// OR2T8 (11738714_s_at) / Fold change /veh OR2T12 /// OR2T33 /// OR2T8 (11738714_s_at) / RFU VCAN (11748164_a_at) / Fold change /veh VCAN (11748164_a_at) / RFU JSRP1 (11732532_at) / Fold change /veh JSRP1 (11732532_at) / RFU KRTAP10-11 (11738290_x_at) / Fold change /veh KRTAP10-11 (11738290_x_at) / RFU MYO3A (11730013_a_at) / Fold change /veh MYO3A (11730013_a_at) / RFU EBF3 (11725865_a_at) / Fold change /veh EBF3 (11725865_a_at) / RFU CAMK2N1 (11719241_x_at) / Fold change /veh CAMK2N1 (11719241_x_at) / RFU C5orf56 (11738088_a_at) / Fold change /veh C5orf56 (11738088_a_at) / RFU OLFML3 (11715873_a_at) / Fold change /veh OLFML3 (11715873_a_at) / RFU LOC100653217 /// NTM (11731650_a_at) / Fold change /veh LOC100653217 /// NTM (11731650_a_at) / RFU MAPK11 (11762145_a_at) / Fold change /veh MAPK11 (11762145_a_at) / RFU FIZ1 (11724087_x_at) / Fold change /veh FIZ1 (11724087_x_at) / RFU OASL (11726364_x_at) / Fold change /veh OASL (11726364_x_at) / RFU SOX15 (11748057_x_at) / Fold change /veh SOX15 (11748057_x_at) / RFU CD79A (11719716_a_at) / Fold change /veh CD79A (11719716_a_at) / RFU HIST1H1D (11736915_at) / Fold change /veh HIST1H1D (11736915_at) / RFU CASKIN2 (11723855_a_at) / Fold change /veh CASKIN2 (11723855_a_at) / RFU LOC730098 (11760151_x_at) / Fold change /veh LOC730098 (11760151_x_at) / RFU OR4N2 (11742367_at) / Fold change /veh OR4N2 (11742367_at) / RFU PRRT2 (11749266_a_at) / Fold change /veh PRRT2 (11749266_a_at) / RFU SNX32 (11753110_a_at) / Fold change /veh SNX32 (11753110_a_at) / RFU CDHR5 (11726645_a_at) / Fold change /veh CDHR5 (11726645_a_at) / RFU RCAN1 (11760418_a_at) / Fold change /veh RCAN1 (11760418_a_at) / RFU FAM167A (11723789_a_at) / Fold change /veh FAM167A (11723789_a_at) / RFU FAM26E (11764081_at) / Fold change /veh FAM26E (11764081_at) / RFU ISYNA1 (11749810_s_at) / Fold change /veh ISYNA1 (11749810_s_at) / RFU ACY1 (11761880_at) / Fold change /veh ACY1 (11761880_at) / RFU 11764098_at / Fold change /veh 11764098_at / RFU SAMD14 (11745864_x_at) / Fold change /veh SAMD14 (11745864_x_at) / RFU NPB (11741838_a_at) / Fold change /veh NPB (11741838_a_at) / RFU TMPRSS6 (11731388_a_at) / Fold change /veh TMPRSS6 (11731388_a_at) / RFU KRTAP10-2 (11738614_at) / Fold change /veh KRTAP10-2 (11738614_at) / RFU ARHGAP8 /// PRR5-ARHGAP8 (11727945_x_at) / Fold change /veh ARHGAP8 /// PRR5-ARHGAP8 (11727945_x_at) / RFU KRTAP5-7 /// NADSYN1 (11734609_at) / Fold change /veh KRTAP5-7 /// NADSYN1 (11734609_at) / RFU RASL12 (11751679_a_at) / Fold change /veh RASL12 (11751679_a_at) / RFU CDKN2B (11736163_a_at) / Fold change /veh CDKN2B (11736163_a_at) / RFU PRF1 (11729649_at) / Fold change /veh PRF1 (11729649_at) / RFU, ZNF638 /// ZNF638-IT1 / Fold change vs veh, ZNF638 /// ZNF638-IT1 / RFU, PANK3 / Fold change vs veh, PANK3 / RFU, SH3YL1 / Fold change vs veh, SH3YL1 / RFU, ZEB2 / Fold change vs veh, ZEB2 / RFU, NRIP1 / Fold change vs veh, NRIP1 / RFU, PTTG1IP / Fold change vs veh, PTTG1IP / RFU, CAPN2 / Fold change vs veh, CAPN2 / RFU, MED14 / Fold change vs veh, MED14 / RFU, SNORA58 / Fold change vs veh, SNORA58 / RFU, C1orf63 / Fold change vs veh, C1orf63 / RFU, LRRFIP1 / Fold change vs veh, LRRFIP1 / RFU, NDUFAF7 / Fold change vs veh, NDUFAF7 / RFU, SLC12A2 / Fold change vs veh, SLC12A2 / RFU, IBTK / Fold change vs veh, IBTK / RFU, ESF1 / Fold change vs veh, ESF1 / Fold change vs veh, TMEM50B / RFU, TAOK1 / Fold change vs veh, TAOK1 / RFU, ACBD3 / Fold change vs veh, ACBD3 / RFU, TMA16 / Fold change vs veh, TMA16 / RFU, RWDD3 / Fold change vs veh, RWDD3 / RFU, BCAT1 / Fold change vs veh, BCAT1 / RFU, EDEM3 / Fold change vs veh, EDEM3 / RFU, TMEM33 / Fold change vs veh, TMEM33 / RFU, WDR75 / Fold change vs veh, WDR75 / RFU, AHCTF1 / Fold change vs veh, AHCTF1 / RFU, TFRC / Fold change vs veh, TFRC / RFU, ZDHHC17 / Fold change vs veh, ZDHHC17 / RFU, NOM1 / Fold change vs veh, NOM1 / RFU, ARL8B / Fold change vs veh, ARL8B / RFU, ZBTB11 / Fold change vs veh, ZBTB11 / RFU, TAMM41 / Fold change vs veh, TAMM41 / RFU, KIAA1704 /// LOC100996395 / Fold change vs veh, KIAA1704 /// LOC100996395 / RFU, ING1 / Fold change vs veh, ING1 / RFU, TRMT61B / Fold change vs veh, TRMT61B / RFU, FUBP3 / Fold change vs veh, FUBP3 / RFU, TP53 / Fold change vs veh, TP53 / RFU, TNKS2 / Fold change vs veh, TNKS2 / RFU, ZFP14 / Fold change vs veh, ZFP14 / RFU, ACTR2 / Fold change vs veh, ACTR2 / RFU, PPP3R1 / Fold change vs veh, PPP3R1 / RFU, PIK3R1 / Fold change vs veh, PIK3R1 / RFU, HNRNPA1 / Fold change vs veh, HNRNPA1 / RFU, RNF170 / Fold change vs veh, RNF170 / RFU, ZNF28 / Fold change vs veh, ZNF28 / RFU, RNGTT / Fold change vs veh, RNGTT / RFU, OGT / Fold change vs veh, OGT / RFU, BRD1 / Fold change vs veh, BRD1 / RFU, MARS / Fold change vs veh, MARS / RFU, ZNF655 / Fold change vs veh, ZNF655 / RFU, FAHD1 / Fold change vs veh, FAHD1 / RFU, BDP1 / Fold change vs veh, BDP1 / RFU, LRRCC1 / Fold change vs veh, LRRCC1 / RFU, ARID1A / Fold change vs veh, ARID1A / RFU, ZNF146 / Fold change vs veh, ZNF146 / RFU, ZNF330 / Fold change vs veh, ZNF330 / RFU, GPN3 / Fold change vs veh, GPN3 / RFU, C9orf123 / Fold change vs veh, C9orf123 / RFU, N4BP2L2 / Fold change vs veh, N4BP2L2 / RFU, ARFIP1 / Fold change vs veh, ARFIP1 / RFU, FAM179B / Fold change vs veh, FAM179B / RFU, BCL10 / Fold change vs veh, BCL10 / RFU, UHRF1BP1L / Fold change vs veh, UHRF1BP1L / RFU, BET1 / Fold change vs veh, BET1 / RFU, CNOT2 / Fold change vs veh, CNOT2 / RFU, ZNF268 / Fold change vs veh, ZNF268 / Fold change vs veh, ZNF507 / RFU, DGCR2 / Fold change vs veh, DGCR2 / RFU, WDSUB1 / Fold change vs veh, WDSUB1 / Fold change vs veh, HSP90B1 /// MIR3652 / RFU, ADSS / Fold change vs veh, ADSS / RFU, GK / Fold change vs veh, GK / RFU, ZNF148 / Fold change vs veh, ZNF148 / RFU, TAF9 / Fold change vs veh, TAF9 / RFU, SLC1A5 / Fold change vs veh, SLC1A5 / RFU, SLMO2 / Fold change vs veh, SLMO2 / RFU, ABCC4 / Fold change vs veh, ABCC4 / RFU, LOC101060439 /// RAP1B / Fold change vs veh, LOC101060439 /// RAP1B / RFU, RFX7 / Fold change vs veh, RFX7 / RFU, GTPBP10 / Fold change vs veh, GTPBP10 / RFU, CNEP1R1 / Fold change vs veh, CNEP1R1 / RFU, BIVM-ERCC5 /// ERCC5 / Fold change vs veh, BIVM-ERCC5 /// ERCC5 / RFU, ILF3 / Fold change vs veh, ILF3 / RFU 11762660_at / Fold change /veh 11762660_at / RFU VCAN (11757783_s_at) / Fold change /veh VCAN (11757783_s_at) / RFU DDX43 (11728927_at) / Fold change /veh DDX43 (11728927_at) / RFU KRT8 (11758188_x_at) / Fold change /veh KRT8 (11758188_x_at) / RFU NKD1 (11759106_at) / Fold change /veh NKD1 (11759106_at) / RFU SRD5A1 (11742802_a_at) / Fold change /veh SRD5A1 (11742802_a_at) / RFU TPSAB1 /// TPSB2 (11721975_s_at) / Fold change /veh TPSAB1 /// TPSB2 (11721975_s_at) / RFU GSTM3 (11746129_a_at) / Fold change /veh GSTM3 (11746129_a_at) / RFU IL23R (11737362_x_at) / Fold change /veh IL23R (11737362_x_at) / RFU TMEM51 (11727254_a_at) / Fold change /veh TMEM51 (11727254_a_at) / RFU PIWIL2 (11732686_x_at) / Fold change /veh PIWIL2 (11732686_x_at) / RFU ORM1 (11744905_x_at) / Fold change /veh ORM1 (11744905_x_at) / RFU CCDC152 (11743942_at) / Fold change /veh CCDC152 (11743942_at) / RFU ECM1 (11717891_a_at) / Fold change /veh ECM1 (11717891_a_at) / RFU IL23R (11748794_a_at) / Fold change /veh IL23R (11748794_a_at) / RFU TNFAIP8L3 (11732012_x_at) / Fold change /veh TNFAIP8L3 (11732012_x_at) / RFU MBOAT4 (11741988_at) / Fold change /veh MBOAT4 (11741988_at) / RFU 11764193_at / Fold change /veh 11764193_at / RFU TMEM53 (11763286_at) / Fold change /veh TMEM53 (11763286_at) / RFU MAGEB2 (11727129_at) / Fold change /veh MAGEB2 (11727129_at) / RFU TMEM200A (11744735_a_at) / Fold change /veh TMEM200A (11744735_a_at) / RFU CCDC152 (11751479_a_at) / Fold change /veh CCDC152 (11751479_a_at) / RFU FAM211A (11726209_a_at) / Fold change /veh FAM211A (11726209_a_at) / RFU RGS16 (11746705_a_at) / Fold change /veh RGS16 (11746705_a_at) / RFU VCAN (11755009_s_at) / Fold change /veh VCAN (11755009_s_at) / RFU RHOB (11743442_s_at) / Fold change /veh RHOB (11743442_s_at) / RFU RGS16 (11720943_a_at) / Fold change /veh RGS16 (11720943_a_at) / RFU RGS16 (11720944_at) / Fold change /veh RGS16 (11720944_at) / RFU, VPS4B / Fold change vs veh, VPS4B / RFU, CREB1 / Fold change vs veh, CREB1 / RFU, DNAJC13 / Fold change vs veh, DNAJC13 / RFU, GNAQ / Fold change vs veh, GNAQ / RFU, CDK5R1 / Fold change vs veh, CDK5R1 / RFU, ZRANB3 / Fold change vs veh, ZRANB3 / RFU, CUL4A / Fold change vs veh, CUL4A / RFU, CCNY / Fold change vs veh, CCNY / RFU, UFL1 / Fold change vs veh, UFL1 / RFU, COG3 / Fold change vs veh, COG3 / RFU, DIAPH2 / Fold change vs veh, DIAPH2 / RFU, SKA2 / Fold change vs veh, SKA2 / RFU, AFF3 / Fold change vs veh, AFF3 / RFU, LMF1 / Fold change vs veh, LMF1 / RFU, IPO11 / Fold change vs veh, IPO11 / RFU, DFFB / Fold change vs veh, DFFB / RFU, FOXP1 / Fold change vs veh, FOXP1 / RFU, CARD8 / Fold change vs veh, CARD8 / RFU, STRN3 / Fold change vs veh, STRN3 / RFU, ADK / Fold change vs veh, ADK / RFU, RASSF2 / Fold change vs veh, RASSF2 / RFU, WIPF1 / Fold change vs veh, WIPF1 / RFU, LARP1B / Fold change vs veh, LARP1B / RFU, RASA1 / Fold change vs veh, RASA1 / RFU, RB1 / Fold change vs veh, RB1 / RFU, PPFIA1 / Fold change vs veh, PPFIA1 / RFU, MAT2A / Fold change vs veh, MAT2A / RFU, CCT5 / Fold change vs veh, CCT5 / RFU, WDR92 / Fold change vs veh, WDR92 / RFU, CUX1 / Fold change vs veh, CUX1 / RFU, TTC7A / Fold change vs veh, TTC7A / RFU, TMEM135 / Fold change vs veh, TMEM135 / RFU, DEPTOR / Fold change vs veh, DEPTOR / RFU, CPM / Fold change vs veh, CPM / RFU, DNAJB6 / Fold change vs veh, DNAJB6 / RFU, CACNA2D3 / Fold change vs veh, CACNA2D3 / RFU, DTX4 / Fold change vs veh, DTX4 / RFU, TFCP2 / Fold change vs veh, TFCP2 / RFU, GMCL1 /// GMCL1P1 / Fold change vs veh, GMCL1 /// GMCL1P1 / RFU, AEBP2 / Fold change vs veh, AEBP2 / RFU, SNHG1 /// SNORD22 /// SNORD25 /// SNORD26 /// SNORD27 /// SNORD28 /// SNORD29 /// SNORD31 / Fold change vs veh, SNHG1 /// SNORD22 /// SNORD25 /// SNORD26 /// SNORD27 /// SNORD28 /// SNORD29 /// SNORD31 / Fold change (Aza/veh), C12orf56 (ProbeSet 11735607_a_at) / Fold change (ACY-1035/veh), C12orf56 (ProbeSet 11735607_a_at) / Fold change (Aza/veh), FGFR1OP (ProbeSet 11751329_s_at) / Fold change (ACY-1035/veh), FGFR1OP (ProbeSet 11751329_s_at) / Fold change (Aza/veh), VPS36 (ProbeSet 11739960_a_at) / Fold change (ACY-1035/veh), VPS36 (ProbeSet 11739960_a_at) / RFU SYPL1 (11715823_x_at) / Fold change /veh SYPL1 (11715823_x_at) / RFU IGFBP7 (11715501_s_at) / Fold change /veh IGFBP7 (11715501_s_at) / RFU REEP3 (11722064_at) / Fold change /veh REEP3 (11722064_at) / RFU IGLL1 (11728026_x_at) / Fold change /veh IGLL1 (11728026_x_at): dose or concentration left out as unconfirmed
Conditions: ProbeSet 11759095_at; LIST D

SMILES: Nc1ncn([C@@H]2O[C@H](CO)[C@@H](O)[C@H]2O)c(=O)n1 [azacitidine]
- Fold change vs veh, GNAQ: 0.81
